In patent publication US9012403B2, “Peptides as active agents to stabilize biological barriers” (XiberScience GmbH, priority 2010, dated 2015):

System: Ventilator-Induced Lung Injury (VILI)
Experiment: Ventilator-induced lung injury (VILI) after LPS pre-challenge
Format: in vivo
Details: mice
Procedure: Experiments were performed with healthy C57BL/6 (aged 8-10 weeks, with weights ranging from 19-25 g). All interventions were performed according to the guide lines of AAALAC. All experiment were approved by the Ethic committee of the University of Amsterdam.
Mice were challenged with LPS (dosage: 50 μg per mouse) (or saline), via intranasal injection 2 h before initiation of mechanical ventilation, to induce lung injury.
XIB1-1b (or random peptide) was administered i.v. 10 min before start of mechanical ventilation (dosage: 4 mg/kg loading dose, followed administration i.v. injections 1 mg/kg/h.
A Y-tube connector with 1.0 mm outer diameter and 0.6 mm inner diameter was surgically inserted into the trachea under general anesthesia. Mice were placed in a supine position and connected to a ventilator. Mice were pressure-controlled ventilated with either an inspiratory pressure of 10 cm H2O (resulting in VT˜7.5 mL/kg; low VT, LVT) or an inspiratory pressure of 18 cm H2O (resulting in VT˜15 mL/kg; high VT, HVT). Positive end-expiratory pressure (PEEP) is set at 2 cm H2O with both MV-strategies. The fraction of inspired oxygen was kept at 0.5 throughout the experiment. The inspiration to expiration ratio was kept at 1:1 throughout the experiment.
BALF was obtained by instilling 3 times 0.5 mL aliquots of saline by a 22-gauge Abbocath-T catheter (Abbott, Sligo, Ireland) into the trachea. Approximately, 1.0 mL of BALF was retrieved per mouse and cell counts were determined using a hemacytometer (Beckman Coulter, Fullerton, Calif.). Subsequently, differential counts were done on cytospin preparations stained with a modified Giemsa stain, Diff-Quick (Dade Behring AG, Düdingen, Switzerland). Supernatant was stored at −80° C.
Total protein levels in BALF are determined using a Bradford Protein Assay Kit (OZ Biosciences, Marseille, France) according to manufacturers' instructions with bovine serum albumin as standard. Mouse IgM was determined by ELISA by using anti-Mouse IgM sensitized 96-strip micro-well plates according to manufacturers' instructions (IMMUNO-TEK kit from ZeptoMetrix).

[1] = LPS + high tidal volume ventilation (LPS-HTV), i.v. 4 mg/kg loading, then 1 mg/kg/h
[2] = LPS + low tidal volume ventilation (LPS+LTV), compared to scrambled peptide
[3] = LPS + low tidal volume ventilation (LPS+LTV), protocol caused no pronounced increase

GRRPLGGISGG (/note=“Description of artificial sequence cingulin-derived peptide XIB1-b”)
IgM content in the BALF [1]: significant decrease | neutrophil count in the BALF [1]: significant decrease | total cell count in the BALF [1]: significant decrease | total protein content in the BALF [1]: significant decrease | neutrophil counts in the BALF [2]: significantly reduced | total cell counts in the BALF [2]: significantly reduced | IgM content in the BALF [3]: no effect | total protein content in the BALF [3]: no effect
